From US12291504B2 (University of Pittsburgh—Of the Commonwealth System of …, priority 2018, dated 2025)
Read-outs that look alike come from different tables or passages of the source.

How the values were obtained:
SULT1A1 = SULT1A1 (Homo sapiens, UniProt P50225); assay: SULT1A1 inhibition, 1-HP initial-rate assay; format: biochemical; conditions: ND = inhibition was not detected at 30 μM compound, parentheses one standard error; for inhibition: read-out: SULT1A1 Enzyme Inhibition at Saturation/%
Chain of SULT1A1 (P50225 whole entry): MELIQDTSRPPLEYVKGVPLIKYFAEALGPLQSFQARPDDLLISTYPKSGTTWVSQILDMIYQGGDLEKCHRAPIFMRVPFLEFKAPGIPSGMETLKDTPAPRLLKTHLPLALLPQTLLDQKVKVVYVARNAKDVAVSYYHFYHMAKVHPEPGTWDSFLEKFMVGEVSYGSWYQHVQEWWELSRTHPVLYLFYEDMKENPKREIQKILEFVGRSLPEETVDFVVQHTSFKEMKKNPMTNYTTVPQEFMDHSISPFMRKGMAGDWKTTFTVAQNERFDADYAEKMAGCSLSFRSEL
Procedure: (§1) Inhibition studies. Inhibition parameters were determined under conditions identical to those described above (see, Initial-Rate Studies) except that [1-HP] was increased to 5.0 μM (˜61×Km) and inhibitor concentration was varied between 0.20-20×Ki. Ki was obtained using a least-squares fit to the following partial inhibition equation (25,28): v=kcat·(Ki+(1/kcat inh)·[I])/(Ki+[I]), where kcat inh is enzyme turnover at saturating substrates and allosteric inhibitor.
as §1, with “(47,50): V/Vax=(Ki+α·[I])/(Ki+[I]),” for “(25,28): v=kcat·(Ki+(1/kcat inh)·[I])/(Ki+[I]),”, “α” for “kcat inh”, “is percentage of” for “is”, “turnover remaining” for “turnover”

SULT1A3 [1] = target: T1, SULT1A3 (Homo sapiens, UniProt P0DMM9); assay: SULT1A3 inhibition studies, 1-HP initial-rate fluorescence assay; format: biochemical; parameters: Wild-type and mutant SULT1A3 coding regions were inserted into a pGEX-6P expression vector; N-His/GST/MBP triple-tag (N, cleaved yes); made in house; host or cells: E. coli BL21(DE3); inhibition: dose or concentration left out as unconfirmed; conditions: for inhibition: read-out: SULT1A3 Enzyme Inhibition at Saturation/%
T1 sequence (P0DMM9 whole entry): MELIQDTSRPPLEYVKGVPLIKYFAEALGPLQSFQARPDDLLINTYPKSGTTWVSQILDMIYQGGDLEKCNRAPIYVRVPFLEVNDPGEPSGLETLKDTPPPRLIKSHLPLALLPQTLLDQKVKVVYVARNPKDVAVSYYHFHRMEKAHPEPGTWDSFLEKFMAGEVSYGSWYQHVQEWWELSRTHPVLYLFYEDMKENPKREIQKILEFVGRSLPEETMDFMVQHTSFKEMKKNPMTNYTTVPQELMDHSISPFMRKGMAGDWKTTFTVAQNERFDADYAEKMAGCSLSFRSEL
Procedure: The initial rates of SULT catalyzed 1-HP sulfonation are plotted as a function of inhibitor concentration, and are normalized relative to [inhibitor]=0. Enzyme activity was monitored by the sulfonation dependent change in 1-HP fluorescence (λex=325 nm, λem=370 nm). Less than 5% of the concentration-limiting substrate converted at the reaction endpoint was consumed during initial-rate measurements. Each point is the average of three independent determinations. Conditions: SULT (20 nM, active sites), PAPS (0.50 mM, 17×Km), 1-HP (5.0 μM, 61×Km), KPO4 (50 mM), pH 7.5, 25±2° C.
(§2) Initial-Rate Studies. Initial-rate parameters for the labeled or mutant SULT1A3 constructs were determined using a previously described 1-HP assay (25). Briefly, reactions were initiated by addition of PAPS (0.50 mM, 17×Km) to a solution containing enzyme (20 nM, active sites), 1-HP (2.0 μM, ˜24×Km), and KPO4 (50 mM), pH 7.5, 25±2° C. Reactions were monitored via fluorescence change associated with the conversion of 1-HP to 1-HP-S (λex=325 nm, λem=370 nm). Keq for the 1-HP sulfonation reaction is −250. Given the reaction conditions outlined above, ≥99% of 1-HP is converted to 1-HP-S, and ˜0.4% of PAPS is converted to PAP at equilibrium. […] Reaction progress curves were analyzed to obtain initial-rate parameters as described previously (26,27).
as §1
as §2, with “(47).” for “(25).”, “˜250.” for “−250.”, “(48,49).” for “(26,27).”
as §1, with “(47,50): V/Vax=(Ki+α·[I])/(Ki+[I]),” for “(25,28): v=kcat·(Ki+(1/kcat inh)·[I])/(Ki+[I]),”, “α” for “kcat inh”, “is percentage of” for “is”, “turnover remaining” for “turnover”

Mouse (1D1) = Mouse (1D1) (Mus musculus, UniProt Q3UZZ6); assay: Inhibition of SULT1A3 homologues in different species: Mouse; format: biochemical
Chain of Mouse (1D1) (Q3UZZ6 whole entry): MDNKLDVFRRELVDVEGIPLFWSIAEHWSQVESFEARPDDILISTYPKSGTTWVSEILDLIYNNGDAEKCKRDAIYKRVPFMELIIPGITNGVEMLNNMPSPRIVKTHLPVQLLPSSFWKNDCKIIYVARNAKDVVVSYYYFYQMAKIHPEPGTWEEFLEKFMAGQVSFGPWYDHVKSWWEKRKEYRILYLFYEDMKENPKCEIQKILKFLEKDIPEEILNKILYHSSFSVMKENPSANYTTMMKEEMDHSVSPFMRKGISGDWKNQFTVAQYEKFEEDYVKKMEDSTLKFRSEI
Procedure: (§3) Compounds 12, 23 and 25 were also tested for Inhibition of SULT1A3 in different species.
(§4) Inhibition of SULT1A3 Homologues in Different Species. SULT1A3 is only expressed in humans and higher primates. SULT1D1 is the isoform expressed in dogs and rodents that sulfonates neurotransmitters and is most similar to SULT1A3. Three synthesized allosteres (12, 23, and 25) were tested against both 1A3 and 1D1 from different species in order to explore testing in animal models. […] Mice have been engineered such that their SULT1A1/2 enzymes have been knocked out and replaced with the human versions of those isoforms.

Dog (1D1) = Dog (1D1) (Canis lupus familiaris, UniProt A0A8I3RXJ1); assay: Inhibition of SULT1A3 homologues in different species: Dog; format: biochemical
Chain of Dog (1D1) (A0A8I3RXJ1 entry or part of it): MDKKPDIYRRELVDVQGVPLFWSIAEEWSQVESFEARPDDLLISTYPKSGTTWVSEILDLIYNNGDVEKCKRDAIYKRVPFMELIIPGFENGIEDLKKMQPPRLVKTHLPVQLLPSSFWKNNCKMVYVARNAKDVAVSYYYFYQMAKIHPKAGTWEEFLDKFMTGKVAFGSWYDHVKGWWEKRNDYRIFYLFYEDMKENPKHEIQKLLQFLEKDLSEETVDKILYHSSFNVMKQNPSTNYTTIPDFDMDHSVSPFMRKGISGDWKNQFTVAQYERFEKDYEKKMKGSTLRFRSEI
Procedure: as §4, with “Compounds 12, 23 and 25 were also tested for Inhibition of SULT1A3 in different species. Inhibition” for “Inhibition”

Rat (1D1) = target: T2, Rat (1D1) (Rattus norvegicus, UniProt G3V9R3); assay: Inhibition of SULT1A3 homologues in different species: Rat; format: biochemical
T2 sequence (G3V9R3 1-295): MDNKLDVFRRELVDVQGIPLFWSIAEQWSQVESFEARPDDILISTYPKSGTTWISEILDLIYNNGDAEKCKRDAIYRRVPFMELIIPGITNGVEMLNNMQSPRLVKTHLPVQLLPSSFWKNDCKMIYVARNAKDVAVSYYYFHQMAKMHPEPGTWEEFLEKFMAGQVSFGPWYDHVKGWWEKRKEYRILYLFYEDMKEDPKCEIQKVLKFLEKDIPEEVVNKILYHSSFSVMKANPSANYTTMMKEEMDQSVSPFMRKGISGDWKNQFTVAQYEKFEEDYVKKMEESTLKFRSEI
Procedure: as §3, §4

Rhesus Macaque (1A3) = Rhesus Macaque (1A3) (Macaca mulatta, UniProt A0A5F7ZQH3); assay: Inhibition of SULT1A3 homologues in different species: Rhesus Macaque; format: biochemical
Chain of Rhesus Macaque (1A3) (A0A5F7ZQH3 1-295): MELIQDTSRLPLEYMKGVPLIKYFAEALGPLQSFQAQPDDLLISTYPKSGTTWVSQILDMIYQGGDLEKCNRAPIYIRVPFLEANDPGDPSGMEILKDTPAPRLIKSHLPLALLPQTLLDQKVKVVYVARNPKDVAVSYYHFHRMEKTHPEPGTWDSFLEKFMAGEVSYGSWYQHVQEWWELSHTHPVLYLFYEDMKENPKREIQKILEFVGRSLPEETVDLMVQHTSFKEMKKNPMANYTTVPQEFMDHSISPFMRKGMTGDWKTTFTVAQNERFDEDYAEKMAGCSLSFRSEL
Procedure: as §3, §4

Green Monkey (1A3) = Green Monkey (1A3) (Chlorocebus sabaeus, UniProt Z9LO20H8W3); assay: Inhibition of SULT1A3 homologues in different species: Green Monkey; format: biochemical
Chain of Green Monkey (1A3) (Z9LO20H8W3 1-295): as the sequence (A0A5F7ZQH3 1-295) above, with T7A, M15V, Y23C, K230R, F247Y, E278A counted along it
Procedure: as §3, §4

SULT1A3 [2] = target: T1, SULT1A3; assay: Pre-steady state binding of PAP to SULT1A3 (stopped-flow fluorescence); parameters: Wild-type and mutant SULT1A3 coding regions were inserted into a pGEX-6P expression vector; N-His/GST/MBP triple-tag (N, cleaved yes); made in house; host or cells: E. coli BL21(DE3)
Procedure: The effect of CMP8 on PAP binding to SULT1A3 was monitored using a stopped-flow spectrofluorimeter (λex=290 nm, λem≥330 nm (cutoff filter)). […] Each kobs value was determined in triplicate and the averaged values are shown. kon and koff are given, respectively, by the slopes and intercepts obtained from linear least-squares fitting of the kobs vs [PAP] plots.
(§5) Pre-Steady State Binding Studies. The pre-steady state binding of PAP to SULT1A3 was monitored via ligand-induced enzyme fluorescence changes in SULT1A3 using an Applied Photophysics SX20 stopped-flow spectrofluorimeter (32). […] All reactions were pseudo first order in [PAP]. The observed rate constant (kobs) at a given [PAP] was taken as the average of three independent progress curves each obtained from a single-exponential fit of 6-9 averaged, binding progress curves. The rate constants, kon and koff, were obtained from the slopes and intercepts predicted by linear least-squares analysis of four-points kobs vs [PAP] plots.
Given that CMP8 interacts with the SULT1A3 cap, it was reasoned it might inhibit by stabilizing the cap-closed form(s) of the enzyme. To test this hypothesis, the microscopic rate constants for nucleotide binding and release were determined in the presence and absence of saturating CMP8. The binding reactions were monitored via intrinsic fluorescence changes associated with ligand binding (30-32) (see, Methods). The resulting kobs vs [PAP] plots are presented in FIG. 4. kon and koff are obtained, respectively, from the slopes and intercepts of the plots (30,31), see Table C. […] Thus, CMP8 does indeed slow nucleotide release by increasing Kiso and thus stabilizing the closed form of the cap.
as §5, with “(29).” for “(32).”

[3] = ND = inhibition was not detected at 30 μM compound, parentheses one standard error, read-out: SULT1A3 Ki/μM
[4] = saturating CMP8 (1.7 μM, 50×Kd)

SMILES	Ki (SULT1A1) [µM]	inhibition (SULT1A1) [%]	Ki (SULT1A3 [1]; [3]) [µM]	inhibition (SULT1A3 [1]; parentheses one standard error) [%]	other results
COCc1ccc2nc(CC(C)C)ccc2c1 [Compound 3, 2-Isobutyl-6-(methoxymethyl)quinolone]	5.7	10	6.1	10	
Cc1nc2ccc(CO)cc2cc1CC(C)C [Compound 4]	7.7	20	7.5		
CCCn1cc(-c2ccc3ncccc3c2)nn1 [Compound 5, 6-(1-Propyl-1H-1,2,3-triazol-4-yl)quinoline]	4.7	53	3.1	33	
COC(=O)c1ccc2nc3c(cc2c1)C(=O)CC(C)C3 (centres unmarked) [Compound 6, Methyl 6-methyl-8-oxo-5,6,7,8-tetrahydroacridine-2-carboxylate]			0.66	35	
CCCCNC(=O)c1ccc2nc(CC(C)C)ccc2c1 [Compound 7, N-Butyl-2-isobutylquinoline-6-carboxamide]	5.1	67	1.3	51	
CCOC(=O)CCc1ccc2cc(CCC(N)=O)ccc2n1 [Compound 9, Ethyl 3-(6-(3-amino-3-oxopropyl)quinolin-2-yl)propanoate]			0.33	63	
O=C(O)/C=C/c1ccc2ncccc2c1 [Compound 10, (E)-3-(quinolin-6-yl)acrylic acid]	22	30	4.1	72	
CC(C)Cc1ccc2cc(C(N)=O)ccc2n1 [Compound 11, 2-Isobutylquinoline-6-carboxamide]			0.86	78	
CC(C)Cc1ccc2cc(/C=C/C(N)=O)ccc2n1 [Compound 13, (E)-3-(2-Isobutylquinolin-6-yl)acrylamide]	6.2	48	0.19	65	
CC(C)(C)Cc1ccc2cc(CO)ccc2n1 [Compound 18]	2.5	40			
CCCn1cc(-c2ccc3ccc(O)cc3c2)nn1 [Compound 20]	12.1	17	2.6	16	
CC(C)Cc1ccc2cc(/C=C/C(=O)O)cnc2n1 [Compound 24, (E)-3-(7-Isobutylnaphthyridin-3-yl)acrylic acid]			3.1	29.4	
CC(C)Cc1ccc2cc(CCC(N)=O)cnc2n1 [Compound 25]			0.017	90	Mouse (1D1) % inh (Mouse (1D1)): 91 (2) %; Ki (Mouse (1D1); parentheses one standard error): 32 nM; Dog (1D1) % inh (Dog (1D1)): 73 (4) %; Ki (Dog (1D1); standard error in neighbouring cell): 52 nM; Rat (1D1) % inh (Rat (1D1)): 21 (3) %; Ki (Rat (1D1); parentheses one standard error): 1100 nM; Rhesus Macaque (1A3) % inh (Rhesus Macaque (1A3)): 95 (2) %; Ki (Rhesus Macaque (1A3); parentheses one standard error): 25 nM; Green Monkey (1A3) % inh (Green Monkey (1A3)): 72 (5) %; Ki (Green Monkey (1A3); parentheses one standard error): 87 nM; Human (1A3) % inh (SULT1A3 [1]; parentheses one standard error): 90 (3) %; Ki (SULT1A3 [1]; standard error in neighbouring cell, read-out: Human (1A3) Ki): 0.017 µM
CC1CC(=O)c2cc3cc(C(N)=O)ccc3nc2C1 (centres unmarked) [Compound 27, 6-Methyl-8-oxo-5,6,7,8-tetrahydroacridine-2-carboxamide]			0.11	75	
CC1Cc2nc3ccc(C(N)=O)cc3cc2C(O)C1 (centres unmarked) [Compound 28, 8-Hydroxy-6-methyl-5,6,7,8-tetrahydroacridine-2-carboxamide]			0.085	52	
Nc1ncnc2c1ncn2[C@@H]1O[C@H](COP(=O)(O)O)[C@@H](OP(=O)(O)O)[C@H]1O [PAP]					koff (s^−1), (−) CMP8 (SULT1A3 [2]; nucleotide binding to SULT1A3 without CMP8): 2.7 (0.1) s^−1; kon (μM^−1s^−1), (−) CMP8 (SULT1A3 [2]; nucleotide binding to SULT1A3 without CMP8, parentheses standard error): 6.6 (0.2)^a μM^−1s^−1; koff (s^−1), (+) CMP8 (SULT1A3 [2]; [4]): 1.1 (0.1) s^−1; kon (μM^−1s^−1), (+) CMP8 (SULT1A3 [2]; [4]): 6.3 (0.3) μM^−1s^−1
